Consider 13 compounds from US12310975B2, “Modulators of BCL6 proteolysis and associated methods of use” (Arvinas Operations, Inc., priority 2019, dated 2025).

A value given as a limit tells only on which side of the number the result lay.

The test has as its target BCL6 (Homo sapiens (Human), UniProt P41182). Description: Immunofluorescence high content imaging of BCL6 degradation in T47D cells. It counts as cell-based. The note with it: class symbols A-D, read-out: EC50 (nM)*. The procedure, abridged: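 Read-out is BCL6 immunofluorescence quantified by high-content imaging (10×, 4 fields per well) of T47D breast cancer cells. Cells were exposed for 3 days to degrader in an 11-point, 3-fold serial dilution reaching a final top concentration of 0.1 or 1 μM.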
With `CNC(=O)COc1cc2cc(Nc3nc(N4CCC(c5ccc(OCCCOCCOCCOc6ccc7c(c6)CN(C6CCC(=O)NC6=O)C7=O)cc5)CC4)ncc3Cl)ccc2n(C)c1=O` (stereo not shown) [compound 89, 2-((6-((5-chloro-2-(4-(4-(3-(2-(2-((2-(2,6-dioxopiperidin-3-yl)-1-oxoisoindolin-5-yl)oxy)ethoxy)ethoxy)propoxy)phenyl)piperidin-1-yl)pyrimidin-4-yl)amino)-1-methyl-2-oxo-1,2-dihydroquinolin-3-yl)oxy)-N-methylacetamide], the DC50 is over 100 nM. As to `CNC(=O)COc1cc2cc(Nc3nc(N4CCC(c5ccccc5OCCCOCCOCCOCCOc5ccc6c(c5)CN(C5CCC(=O)NC5=O)C6=O)CC4)ncc3Cl)ccc2n(C)c1=O` (stereo not shown) [compound 90, 2-((6-((5-chloro-2-(4-(2-(3-(2-(2-(2-((2-(2,6-dioxopiperidin-3-yl)-1-oxoisoindolin-5-yl)oxy)ethoxy)ethoxy)ethoxy)propoxy)phenyl)piperidin-1-yl)pyrimidin-4-yl)amino)-1-methyl-2-oxo-1,2-dihydroquinolin-3-yl)oxy)-N-methylacetamide], the DC50 was over 100 nM.

For the compound `O=C1CCC(N2C(=O)c3ccc(N4CCN(CC5CCN(c6cc(Nc7ccc8c(c7)CCC(=O)N8)c(Cl)cc6[N+](=O)[O-])CC5)CC4)cc3C2=O)C(=O)N1` (stereo not shown) [compound 92, 5-(4-((1-(4-chloro-2-nitro-5-((2-oxo-1,2,3,4-tetrahydroquinolin-6-yl)amino)phenyl)piperidin-4-yl)methyl)piperazin-1-yl)-2-(2,6-dioxopiperidin-3-yl)isoindoline-1,3-dione], the DC50 is over 100 nM. For `CNC(=O)COc1cc2cc(Nc3nc(N4CCC(OCCOCCOCCOCCCOc5ccccc5-c5ccc6c(c5)CN(C5CCC(=O)NC5=O)C6=O)CC4)ncc3Cl)ccc2n(C)c1=O` (stereo not shown) [compound 93, 2-((6-((5-chloro-2-(4-(2-(2-(2-(3-(2-(2-(2,6-dioxopiperidin-3-yl)-1-oxoisoindolin-5-yl)phenoxy)propoxy)ethoxy)ethoxy)ethoxy)piperidin-1-yl)pyrimidin-4-yl)amino)-1-methyl-2-oxo-1,2-dihydroquinolin-3-yl)oxy)-N-methylacetamide], the DC50 is over 100 nM. For `CNC(=O)COc1cc2cc(Nc3nc(N4CCC(OCCOCCOCCCCOc5ccc(-c6ccc7c(c6)CN(C6CCC(=O)NC6=O)C7=O)cc5)CC4)ncc3Cl)ccc2n(C)c1=O` (stereo not shown) [compound 94, 2-((6-((5-chloro-2-(4-(2-(2-(4-(4-(2-(2,6-dioxopiperidin-3-yl)-1-oxoisoindolin-5-yl)phenoxy)butoxy)ethoxy)ethoxy)piperidin-1-yl)pyrimidin-4-yl)amino)-1-methyl-2-oxo-1,2-dihydroquinolin-3-yl)oxy)-N-methylacetamide], the DC50 is over 100 nM. With `CNC(=O)COc1cc2cc(Nc3nc(N4CCC(Oc5cccc(OCCCCOCCOCCOc6ccc7c(c6)CN(C6CCC(=O)NC6=O)C7=O)c5)CC4)ncc3Cl)ccc2n(C)c1=O` (stereo not shown) [compound 95, 2-((6-((5-chloro-2-(4-(3-(4-(2-(2-((2-(2,6-dioxopiperidin-3-yl)-1-oxoisoindolin-5-yl)oxy)ethoxy)ethoxy)butoxy)phenoxy)piperidin-1-yl)pyrimidin-4-yl)amino)-1-methyl-2-oxo-1,2-dihydroquinolin-3-yl)oxy)-N-methylacetamide], the DC50 was over 100 nM. Turning to `CNC(=O)COc1cc2cc(Nc3nc(N4CCC(Oc5ccc(OCCCOCCOCCOc6ccc7c(c6)CN(C6CCC(=O)NC6=O)C7=O)cc5)CC4)ncc3Cl)ccc2n(C)c1=O` (stereo not shown) [compound 96, 2-((6-((5-chloro-2-(4-(4-(3-(2-(2-((2-(2,6-dioxopiperidin-3-yl)-1-oxoisoindolin-5-yl)oxy)ethoxy)ethoxy)propoxy)phenoxy)piperidin-1-yl)pyrimidin-4-yl)amino)-1-methyl-2-oxo-1,2-dihydroquinolin-3-yl)oxy)-N-methylacetamide], the DC50 is over 100 nM. As for `CNC(=O)COc1cc2cc(Nc3nc(N4CCC(OCc5cccc(COCCOCCOCCOc6ccc7c(c6)CN(C6CCC(=O)NC6=O)C7=O)c5)CC4)ncc3Cl)ccc2n(C)c1=O` (stereo not shown) [compound 97, 2-((6-((5-chloro-2-(4-((3-((2-(2-(2-((2-(2,6-dioxopiperidin-3-yl)-1-oxoisoindolin-5-yl)oxy)ethoxy)ethoxy)ethoxy)methyl)benzyl)oxy)piperidin-1-yl)pyrimidin-4-yl)amino)-1-methyl-2-oxo-1,2-dihydroquinolin-3-yl)oxy)-N-methylacetamide], the DC50 fell in the range of 50 to 100 nM. Take `CC(=O)COc1cc2cc(Nc3nc(N4CCC(OCCOCCOCCOCCOCCOc5ccc6c(c5)CN(C5CCC(=O)NC5=O)C6=O)CC4)ncc3Cl)ccc2n(C)c1=O` (stereo not shown) [compound 98, 3-(5-((14-((1-(5-chloro-4-((1-methyl-2-oxo-3-(2-oxopropoxy)-1,2-dihydroquinolin-6-yl)amino)pyrimidin-2-yl)piperidin-4-yl)oxy)-3,6,9,12-tetraoxatetradecyl)oxy)-1-oxoisoindolin-2-yl)piperidine-2,6-dione]: the DC50 fell in the range of 10 to 50 nM. Turning to `CN(C)C(=O)COc1cc2cc(Nc3nc(N4CCC(OCCOCCOCCOCCOCCOc5ccc6c(c5)CN(C5CCC(=O)NC5=O)C6=O)CC4)ncc3Cl)ccc2n(C)c1=O` (stereo not shown) [compound 99, 2-((6-((5-chloro-2-(4-((14-((2-(2,6-dioxopiperidin-3-yl)-1-oxoisoindolin-5-yl)oxy)-3,6,9,12-tetraoxatetradecyl)oxy)piperidin-1-yl)pyrimidin-4-yl)amino)-1-methyl-2-oxo-1,2-dihydroquinolin-3-yl)oxy)-N,N-dimethylacetamide], the DC50 was over 100 nM. With `CNC(=O)COc1cc2cc(Nc3nc(N4CCC(OCCOCCOCCOc5cccc(CCOc6ccc7c(c6)CN(C6CCC(=O)NC6=O)C7=O)c5)CC4)ncc3Cl)ccc2n(C)c1=O` (stereo not shown) [compound 100, 2-((6-((5-chloro-2-(4-(2-(2-(2-(3-(2-((2-(2,6-dioxopiperidin-3-yl)-1-oxoisoindolin-5-yl)oxy)ethyl)phenoxy)ethoxy)ethoxy)ethoxy)piperidin-1-yl)pyrimidin-4-yl)amino)-1-methyl-2-oxo-1,2-dihydroquinolin-3-yl)oxy)-N-methylacetamide], the DC50 was over 100 nM.

Regarding `CNC(=O)COc1cc2cc(Nc3nc(N4CCC(N(C)[C@H]5CC[C@H](CN6CCN(c7ccc8c(c7)CN(C7CCC(=O)NC7=O)C8=O)CC6)CC5)CC4)ncc3Cl)ccc2n(C)c1=O` (stereo partly shown) [compound 101, 2-((6-((5-chloro-2-(4-(((1r,4r)-4-((4-(2-(2,6-dioxopiperidin-3-yl)-1-oxoisoindolin-5-yl)piperazin-1-yl)methyl)cyclohexyl) (methyl)amino)piperidin-1-yl)pyrimidin-4-yl)amino)-1-methyl-2-oxo-1,2-dihydroquinolin-3-yl)oxy)-N-methylacetamide], the DC50 is under 10 nM. As to `CNC(=O)COc1cc2cc(Nc3nc(N4CCC(N(C)[C@H]5CC[C@@H](CN6CCN(c7ccc8c(c7)CN(C7CCC(=O)NC7=O)C8=O)CC6)CC5)CC4)ncc3Cl)ccc2n(C)c1=O` (stereo partly shown) [compound 102, 2-((6-((5-chloro-2-(4-(((1s,4s)-4-((4-(2-(2,6-dioxopiperidin-3-yl)-1-oxoisoindolin-5-yl)piperazin-1-yl)methyl)cyclohexyl) (methyl)amino)piperidin-1-yl)pyrimidin-4-yl)amino)-1-methyl-2-oxo-1,2-dihydroquinolin-3-yl)oxy)-N-methylacetamide], the DC50 is under 10 nM.
